# pIC50: −log10 of the molar value. Where two headings read alike, the source gives them in different places.
# Key:
# KIF18A = KIF18A (Homo sapiens (Human), UniProt Q8NI77); assay: KIF18A Biochemical Assay (ATPase, ADP-Glo)
# OVCAR-3 cells = assay: In vitro anti-proliferative activity assay in cancer cell line OVCAR-3 (CellTiter-Glo, 4- or 7-day); assay type: cell-based; conditions: Homo sapiens, read-out: OVCAR-3 cellular antiproliferation assay IC50
# [1] = Caco-2 permeation assay, bidirectional permeability; assay type: in vitro ADME; conditions: human, Caco-2, pH 7.4, 5 μM, Papp(B-A)/Papp(A-B)
# Method: 1. Caco-2 Permeation Assay: Evaluation of the Bidirectional Permeabilities of Compounds.
# Samples were analyzed through LC/MS/MS for estimating the apparent permeability coefficients (Papp) of compounds across Caco-2 cell monolayers. Caco-2 cells (American Type Culture Collection) were incubated and seeded onto HTS Transwell-96 Well Permeable Supports (Corning Corporation) for 14 days using a cell medium consisting of Dulbecco's Modified Eagle's Medium (DMEM) with high glucose and L-glutamine supplemented with 10% FBS, 1× penicillin-streptomycin mixture and 1×non-essential amino acids (NEAA). Cell monolayer integrity was measured using an automated tissue resistance measuring system (World Precision Instruments). Stock solutions of compounds and control compounds in DMSO were diluted with HBSS (10 mM HEPES, pH 7.4) to reach a final concentration of 5 μM with a final concentration of DMSO <0.1%. HBSS was then removed after 30 minutes of preincubation, and 75 μL of test compound was added to the apical compartment of the Transwell insert. The basolateral compartment was filled with 235 μL of HBSS (10 mM HEPES, pH 7.4) containing 2% BSA. Rate of drug transport in the basolateral to apical direction was obtained by adding 235 μL of test compound to the receiver plate wells (basolateral compartment) and filling with 75 μL of HBSS (10 mM HEPES, pH 7.4) containing 2% BSA. Time 0 samples were prepared by transferring 25 μL of 5 μM working solution to wells of the 96-deepwell plate containing 25 μL HBSS (10 mM HEPES and 2% BSA, pH 7.4), followed by the addition 200 μL of cold methanol containing appropriate internal standards (100 nM alprazolam, 200 nM labetalol, 200 nM caffeine and 200 nM diclofenac). After incubating at 37° C. for 2 h, 25 μL samples from donor sides (apical compartment) were transferred to a 96-well plate containing 25 μL HBSS (10 mM HEPES and 2% BSA, pH 7.4). 25 μL samples from receiver sides (basolateral compartment) were removed and transferred to a new plate containing 25 μL HBSS (10 mM HEPES, pH 7.4). 200 μL of cold methanol containing internal standards (100 nM alprazolam, 200 nM labetalol, 200 nM caffeine and 200 nM diclofenac) was added to terminate the reaction. Samples were vortexed for 5 minutes and then centrifuged at 3,220 g for 40 minutes. An aliquot of 100 μL of the supernatant is mixed with 100 μL of ultra-pure water for LC-MS/MS analysis. All incubations are performed in duplicate. Solutions were discarded from the transwell plate. 100 μL Lucifer Yellow solution (100 μM in HBSS) was added to each well of transwell insert and 300 μL of HBSS to each well of receiver. After incubating at 37° C. for 30 minutes, 80 μL was aliquotted from each well of apical and basolateral sides to a solid black plate. The plate was then read with Tecan Infinite™ M 200 (Excitation/Emission wavelength […]).
# All calculations were carried out using Microsoft Excel. Peak areas were determined from extracted ion chromatograms. The leakage of Lucifer Yellow, in unit of percentage (%), can be calculated using the following equation: […]
# LY leakage of <1% is acceptable to indicate the well-qualified Caco-2 monolayers. The apparent permeability coefficient (Papp), in units of centimeter per second, can be calculated for Caco-2 drug transport assays using the following equation: […]
# Where VA is the volume (in mL) in the receiver well (0.235 mL for Ap→Bl flux and 0.075 mL for Bl→Ap flux), Area is the surface area of the membrane (0.143 cm^2 for HTS Transwell-96 Well Permeable Supports), and time is the total transport time in seconds. The efflux ratio can be determined using the following equation: […]
# Where Papp (B-A) indicates the apparent permeability coefficient in basolateral to apical direction, and Papp (A-B) indicates the apparent permeability coefficient in apical to basolateral direction.
# The recovery can be determined using the following equation: […]
# Sequence of KIF18A (Q8NI77 1-367): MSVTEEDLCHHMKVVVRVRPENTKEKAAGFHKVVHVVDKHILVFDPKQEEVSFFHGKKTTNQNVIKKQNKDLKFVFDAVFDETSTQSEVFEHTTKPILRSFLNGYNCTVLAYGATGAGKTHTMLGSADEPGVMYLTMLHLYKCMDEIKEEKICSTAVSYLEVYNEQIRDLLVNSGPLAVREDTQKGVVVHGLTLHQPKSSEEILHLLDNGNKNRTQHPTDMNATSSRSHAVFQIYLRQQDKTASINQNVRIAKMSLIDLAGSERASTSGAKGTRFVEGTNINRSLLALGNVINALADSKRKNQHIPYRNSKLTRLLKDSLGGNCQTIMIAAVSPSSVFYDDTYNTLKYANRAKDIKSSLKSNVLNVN
# Sequence of KIF18A (P02550 whole entry partner): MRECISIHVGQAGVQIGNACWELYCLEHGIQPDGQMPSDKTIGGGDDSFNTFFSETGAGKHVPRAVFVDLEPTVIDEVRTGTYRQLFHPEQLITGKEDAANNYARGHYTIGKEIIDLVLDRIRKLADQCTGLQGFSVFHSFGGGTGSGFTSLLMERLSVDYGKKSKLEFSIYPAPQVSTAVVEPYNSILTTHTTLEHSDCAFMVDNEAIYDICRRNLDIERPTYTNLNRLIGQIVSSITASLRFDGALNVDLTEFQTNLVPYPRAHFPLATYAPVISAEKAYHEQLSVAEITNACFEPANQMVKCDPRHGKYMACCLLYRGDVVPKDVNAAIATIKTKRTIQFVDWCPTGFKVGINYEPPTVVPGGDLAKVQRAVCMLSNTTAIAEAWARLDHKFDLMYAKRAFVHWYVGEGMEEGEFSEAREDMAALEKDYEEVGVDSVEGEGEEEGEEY
# Sequence of KIF18A (P02554 whole entry partner): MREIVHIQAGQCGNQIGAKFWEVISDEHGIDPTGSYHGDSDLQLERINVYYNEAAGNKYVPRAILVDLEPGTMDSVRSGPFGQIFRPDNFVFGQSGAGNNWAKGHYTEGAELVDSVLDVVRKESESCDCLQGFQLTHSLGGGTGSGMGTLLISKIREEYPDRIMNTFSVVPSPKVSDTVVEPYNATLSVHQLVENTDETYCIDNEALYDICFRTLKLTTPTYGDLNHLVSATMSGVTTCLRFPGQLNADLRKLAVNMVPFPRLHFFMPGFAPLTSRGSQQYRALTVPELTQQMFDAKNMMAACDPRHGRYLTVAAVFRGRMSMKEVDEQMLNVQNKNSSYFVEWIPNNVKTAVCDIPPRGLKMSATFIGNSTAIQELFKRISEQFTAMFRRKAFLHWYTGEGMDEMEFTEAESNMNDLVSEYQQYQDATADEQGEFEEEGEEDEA
Compound,pIC50 (KIF18A),"pIC50 (OVCAR-3 cells; OVCAR-3, 96 h, 4-day assay)","efflux ratio at 2 h, 5 μM [1]","pIC50 (OVCAR-3 cells; OVCAR-3, 168 h, 7-day assay)"
C[C@H]1CN(c2cccc(NC(=O)c3ccc(NS(=O)(=O)CCO)cc3N3CC[Si](C)(C)CC3)n2)CCO1 [Example 17],> 7.00,> 7.00,≥ 10,
Cc1cc(NC(=O)c2ccc(NS(C)(=O)=O)cc2N2CC[Si](C)(C)CC2)nc(N2CC(F)(F)C2)c1 [Example 20],6.30 to 7.00,6.30 to 7.00,< 10,
Cc1cc(NC(=O)c2ccc(NS(=O)(=O)CCO)cc2N2CC[Si](C)(C)CC2)nc(N2CCC3(CC3)C2)n1 [Example 21],6.30 to 7.00,6.30 to 7.00,< 10,
"Cc1cc(NC(=O)c2ccc(NS(=O)(=O)CCO)cc2N2CCC3(C)C(C2)C3(F)F)nc(N2CCC(F)(F)CC2)n1 (stereo not drawn) [Example 28, 2-(7,7-difluoro-6-methyl-3-azabicyclo[4.1.0]heptan-3-yl)-N-(2-(4,4-difluoropiperidin-1-yl)-6-methylpyrimidin-4-yl)-4-((2-hydroxyethyl)sulfonamido)benzamide]",> 7.00,6.30 to 7.00,< 10,
Cc1cc(NC(=O)c2ccc(NS(=O)(=O)CCO)cc2N2CCC3CC3C2)nc(N2CCC(F)(F)CC2)n1 (stereo not drawn) [Example 34],> 7.00,6.30 to 7.00,≥ 10,
Cc1cc(NC(=O)c2ccc(NS(=O)(=O)CCO)cc2N2CC[C@]3(C)C[C@@H]3C2)nc(N2CCC(F)(F)CC2)n1 [Example 35],> 7.00,6.30 to 7.00,< 10,
Cc1cc(NC(=O)c2ccc(NS(=O)(=O)CCO)cc2N2CCC3(C)CC3C2)nc(N2CCC(F)(F)CC2)n1 (stereo not drawn) [Example 37],> 7.00,> 7.00,< 10,
"Cc1cc(NC(=O)c2ccc(NS(=O)(=O)CCO)cc2N2CC[C@@]3(C(F)F)C[C@H]3C2)nc(N2CCC(F)(F)CC2)c1 [Example 48, 2-((1R,6S)-6-(difluoromethyl)-3-azabicyclo[4.1.0]heptan-3-yl)-N-(6-(4,4-difluoropiperidin-1-yl)-4-methylpyridin-2-yl)-4-((2-hydroxyethyl)sulfonamido)benzamide]",> 7.00,> 7.00,≥ 10,
Cc1cc(NC(=O)c2ccc(NS(C)(=O)=O)cc2N2CC[C@]3(C(F)F)C[C@@H]3C2)nc(N2CCC(F)(F)CC2)n1 [Example 54],> 7.00,,< 10,6.30 to 7.00

# Further lines, results first:
pIC50 (KIF18A),"pIC50 (OVCAR-3 cells; OVCAR-3, 96 h, 4-day assay)","efflux ratio at 2 h, 5 μM [1]","pIC50 (OVCAR-3 cells; OVCAR-3, 168 h, 7-day assay)",Compound
> 7.00,,≥ 10,6.30 to 7.00,Cc1cc(NC(=O)c2ccc(NS(=O)(=O)NCCO)cc2N2CC[C@]3(C(F)F)C[C@@H]3C2)nc(N2CCC(F)(F)CC2)n1 [Example 56]
> 7.00,,≥ 10,> 7.00,Cc1cc(NC(=O)c2ccc(NS(=O)(=O)CCO)cc2N2CC[C@]3(C(F)F)C[C@@H]3C2)nc(N2CCC(F)(F)CC2)n1 [Example 58]
> 7.00,,≥ 10,> 7.00,O=C(Nc1ccnc(N2CCC(F)(F)CC2)n1)c1ccc(NS(=O)(=O)CCO)cc1N1CC[C@]2(C(F)F)C[C@@H]2C1 [Example 60]
> 7.00,,< 10,> 7.00,O=C(Nc1cccc(N2CCC(F)(F)CC2)n1)c1ccc(NS(=O)(=O)CCO)cc1N1CC[C@@]2(C(F)F)C[C@H]2C1 [Example 66]
> 7.00,,≥ 10,> 7.00,O=C(Nc1ccnc(N2CCC(F)(F)CC2)n1)c1c(F)cc(NS(=O)(=O)CCO)cc1N1CC[C@@]2(C(F)F)C[C@H]2C1 [Example 70]
> 7.00,,≥ 10,6.30 to 7.00,Cc1cc(NC(=O)c2c(F)cc(NS(=O)(=O)CCO)cc2N2CC[C@@]3(C(F)F)C[C@H]3C2)nc(N2CCC(F)(F)CC2)n1 [Example 72]
> 7.00,,< 10,> 7.00,O=C(Nc1ccnc(C2CCC(F)(F)CC2)n1)c1ccc(NS(=O)(=O)CCO)cc1N1CC[C@]2(C(F)F)C[C@@H]2C1 [Example 75]

# — US20250197428A1, “INHIBITORS OF KIF18A AND USES THEREOF” (ACCENT THERAPEUTICS, INC., priority 2022, published 2025)
